One assay has as its system plasma. Briefly: Determination of anticoagulatory activity: activated partial thromboplastin time (aPTT) in plasma. The note with it: in vitro in human and animal plasma (species of Table B not stated); C.K. Prest kit; 37° C., 3 minutes incubation. The method, then: a.4) Determination of Anticoagulatory Activity
The anticoagulatory activity of the test substances is determined in vitro in human and animal plasma (for example mouse, rat, rabbit, pig and dog plasma). To this end, blood is drawn off in a mixing ratio of sodium citrate/blood of 1:9 using a 0.11 molar sodium citrate solution as receiver. Immediately after the blood has been drawn off, it is mixed thoroughly and centrifuged at about 4000 g for 15 minutes. The supernatant is pipetted off.
The activated partial thromboplastin time (aPTT) is determined in the presence of varying concentrations of test substance or the corresponding solvent using a commercial test kit (C.K. Prest from Diagnostica Stago). The test compounds are incubated with the plasma and the PTT reagent (cephalin, kaolin) at 37° C. for 3 minutes. Coagulation is then started by addition of a 25 mM aqueous calcium chloride solution, and the time when coagulation occurs is determined. The concentration of test substance which brings about a 1.5-fold extension of the aPTT is determined.

The target of a further assay is T1, human factor XIa (Homo sapiens, UniProt P03951).
T1 construct: purchased Kordia
T1 sequence (P03951 388-625 limits assumed): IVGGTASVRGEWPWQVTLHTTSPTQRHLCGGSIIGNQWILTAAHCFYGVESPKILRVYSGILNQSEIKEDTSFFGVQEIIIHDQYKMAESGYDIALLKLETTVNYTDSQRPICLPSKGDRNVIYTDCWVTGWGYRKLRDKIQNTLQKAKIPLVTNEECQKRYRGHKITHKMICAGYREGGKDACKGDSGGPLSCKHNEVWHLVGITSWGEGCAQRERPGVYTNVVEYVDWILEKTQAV
T1 sequence (P03951 19-387 partner limits assumed): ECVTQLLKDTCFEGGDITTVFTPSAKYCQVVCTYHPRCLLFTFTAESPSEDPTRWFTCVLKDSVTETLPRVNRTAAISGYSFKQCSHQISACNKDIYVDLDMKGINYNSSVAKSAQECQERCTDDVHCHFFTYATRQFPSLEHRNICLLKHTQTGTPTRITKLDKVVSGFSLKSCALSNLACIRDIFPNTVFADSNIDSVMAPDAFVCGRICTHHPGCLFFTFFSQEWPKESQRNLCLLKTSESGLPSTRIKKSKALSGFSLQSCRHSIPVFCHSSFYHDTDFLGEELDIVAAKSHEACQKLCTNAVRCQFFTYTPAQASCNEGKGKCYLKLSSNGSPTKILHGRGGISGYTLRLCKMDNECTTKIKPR
Put plainly: Measurement of FXIa inhibition (fluorogenic peptide substrate Boc-Glu(OBzl)-Ala-Arg-AMC). It counts as biochemical. The following applies: factor XIa from Kordia 0.45 nM; 15 min preincubation; 30 min at 22° C.; fluorescence of AMC. The procedure: a.1) Measurement of FXIa Inhibition
The factor XIa inhibition of the substances according to the invention is determined using a biochemical test system which utilizes the reaction of a peptidic factor XIa substrate to determine the enzymatic activity of human factor XIa. Here, factor XIa cleaves from the peptic factor XIa substrate the C-terminal aminomethylcoumarin (AMC), the fluorescence of which is measured. The determinations are carried out in microtitre plates.
Test substances are dissolved in dimethyl sulphoxide and serially diluted in dimethyl sulphoxide (3000 μM to 0.0078 μM; resulting final concentrations in the test: 50 μM to 0.00013 μM). In each case 1 μl of the diluted substance solutions is placed into the wells of white microtitre plates from Greiner (384 wells). Subsequently, the following are added successively: 20 μl of assay buffer (50 mmol/l Tris buffer pH 7.4; 100 mmol/l sodium chloride; 5 mmol/l calcium chloride; 0.1% bovine serum albumin) and 20 μl of factor XIa from Kordia (0.45 nM in assay buffer). After 15 min of incubation, the enzyme reaction is started by addition of 20 μl of the factor XIa substrate Boc-Glu(OBzl)-Ala-Arg-AMC dissolved in assay buffer (10 μM in assay buffer) from Bachem, the mixture is incubated at room temperature (22° C.) for 30 min and fluorescence is then measured (excitation: 360 nm, emission: 460 nm). The measured emissions of the test batches with test substance are compared to those of control batches without test substance (only dimethyl sulphoxide instead of test substance in dimethyl sulphoxide), and IC50 values are calculated from the concentration/activity relationships.

Counter-ions that a name gives are not always drawn.

On to `CNC(=O)c1ccccc1-c1ccc(C[C@H](NC(=O)[C@H]2CC[C@H](CN)CC2)C(=O)Nc2ccc(-c3nn[nH]n3)cc2)cc1` [Example 7, 4′-[(2S)-2-({[trans-4-(Aminomethyl)cyclohexyl]carbonyl}amino)-3-oxo-3-{[4-(2H-tetrazol-5-yl)phenyl]amino}propyl]-N-methylbiphenyl-2-carboxamide hydrochloride], for which the “aPTT (concentration of test substance which brings about a 1.5-fold extension of the aPTT)” value in the assay with plasma came out at 0.61 µmol/L. For the same molecule, half-maximal inhibition at human factor XIa (IC50) was put at 12 nM.
The matching figures for `NC[C@H]1CC[C@H](C(=O)N[C@@H](Cc2ccc(-c3ccccc3NC(=O)C3CCOCC3)cc2)C(=O)Nc2ccc(-c3nn[nH]n3)cc2)CC1` [Example 11, N-{4′-[(2S)-2-({[trans-4-(Aminomethyl)cyclohexyl]carbonyl}amino)-3-oxo-3-{[4-(2H-tetrazol-5-yl)phenyl]amino}propyl]biphenyl-2-yl}tetrahydro-2H-pyran-4-carboxamide hydrochloride]: 0.16 µmol/L and 3 nM.
